The values below come from patent US20120141384A1, “ANTIBACTERIAL CONJUGATED BORONIC ACIDS AND PHARMACEUTICAL COMPOSITIONS THEREOF” (priority 2008, published 2012).

The structures appear in SMILES notation. Some results are limits rather than exact numbers.

In this experiment the test system is Propionbacterium acnes ATCC 11827. Briefly: Antimicrobial efficacy (challenge) test, plate count, anaerobic incubation. The experiment is classed as cell-based. The settings on record: for No. of Surviving Microorganisms CFU/g: 25° C. anaerobic, initial contamination 4.1 × 10^5 CFU/g; for antimicrobial effect in words: following one day of exposure. Here is the method:
The purpose of this study was to assess the antimicrobial efficacy of 2-Formylphenyl boronic acid (FPB) aqueous solutions, in different concentrations of 10 mM, 20 mM and 40 mM. 2-FBP was obtained from Sigma Aldrich. Test Procedure: The test consisted of challenging the test solutions with specified microorganisms, storing the inoculated preparations at a prescribed temperature, removing the inoculated samples at specified intervals of time and counting the number of viable organisms in the withdrawn samples using a plate count procedure. The technical details were as follows: • The test was conducted in 20 g samples. • Each sample was separately inoculated by one of the test organisms. • The inoculated containers were incubated at 25° C. together with an uninoculated sample. • The inoculated container with P. acnes was incubated under anaerobic conditions at the same temperature. • The culture media for P. acnes was Brain Heart Infusion Agar instead of Tryptic Soy Agar. Formulations were challenged by introducing the following microorganisms: Propionbacterium acnes ATCC 11827 Counting of microorganisms in the inoculated samples was performed 1, 2 and 7 days following inoculation. The number of colony-forming units (cfu/g) determined at each incubation time point was compared to the number of cfu/g measured in non-inoculated control samples of FPB solutions. Antimicrobial effectiveness results, expressed as colony forming units of surviving microorganisms in the FPB solutions (cfu/g), are detailed in Tables 1-3.

In the case of `O=Cc1ccccc1B(O)O` [FPB, 2-Formylphenyl boronic acid], the “No. of Surviving Microorganisms CFU/g” value reads like this: (10 mM FPB aqueous solution, 1 week) <10 CFU/g; (10 mM FPB aqueous solution, 1 days) <10 CFU/g; (10 mM FPB aqueous solution, 2 days) <10 CFU/g; (20 mM FPB aqueous solution, 1 week) <10 CFU/g; (20 mM FPB aqueous solution, 1 days) <10 CFU/g; (20 mM FPB aqueous solution, 2 days) <10 CFU/g. Moreover, the “antimicrobial effect in words” value reads like this: (Solution 1 (10 mM FPB)) “completely destroyed”; (Solution 2 (20 mM FBA)) “completely eradicated”; (Solution 3 (40 mM FBA)) “completely eradicated”. Moreover, the “effectiveness (conclusion)” value (solutions, concentrations of 10 mM, 20 mM and 40 mM) is listed as “effective”.
